# B1: recombinant IL-22: recombinant mouse IL-22 (R&D Systems) (protein, UniProt Q9JJY9 34-179, looked up)
# Interleukin-22: LPVNTRCKLEVSNFQQPYIVNRTFMLAKEASLADNNTDVRLIGEKLFRGVSAKDQCYLMKQVLNFTLEDVLLPQSDRFQPYMQEVVPFLTKLSNQLSSCHISGDDQNIQKNVRRLKETVKKLGESGEIKAIGELDLLFMSLRNACV
# B2: recombinant amphiregulin: recombinant human amphiregulin (Sigma-Aldrich), EGFR ligand (protein, UniProt P15514 101-187, looked up)
# Amphiregulin: SVRVEQVVKPPQNKTESENTSDKPKRKKKGGKNGKNRRNRKKKNPCNAEFQNFCIHGECKYIEHLEAVTCKCQQEYFGERCGEKSMK
# What was measured:
# [1] = test system: bacterial abundance in the gut; test: Fecal bacterial load by 16S rDNA-based qPCR; assay type: in vivo, mouse; conditions: SPF KP mice, metronidazole alone in drinking water
# Procedure: Fecal pellets were collected from the colon at the time of tissue harvest. BALF and fecal samples were processed for DNA isolation using a previously established protocol (Palm, et al., Cell. 158(5):1000-1010 (2014); Turnbaugh, et al., Nature. 457(7228):480-4 (2009)). […] E. coli genomic DNA was used as a standard, with samples at 1, 0.1, 0.01, and 0.001 ng per reaction used to create a standard curve.
# [2] = test system: lung adenocarcinoma in KP mice; test: Tumor development (tumor burden/grade by histology) in autochthonous KP GEM model of lung adenocarcinoma; conditions: SPF KP mice, metronidazole alone (1 g/L) in drinking water starting 5 weeks post tumor initiation (FIG. 2E)
# Source text: The genetically-engineered mouse (GEM) model of human LUAD has previously been described (DuPage, et al.). In this model, the mice harbor conditional alleles of Kras^LSL-G12D and p53^flox/flox (KP mice). Upon intratracheal infection with adenoviral vectors expressing the Cre-recombinase under the control of the Sftpc promoter, oncogenic KrasG12D is activated and the tumor suppressor p53 is deleted in lung epithelial cells to induce lung adenoma and adenocarcinoma.
# Germ-free KP mice were housed in gnotobiotic isolators, which were sampled every 2 weeks and confirmed negative for bacterial and fungal contaminants by culture, fecal Gram stain, and PCR using universal 16S rRNA primers. […]
# Tumor-bearing lung lobes and a portion of the spleen were fixed in 4% paraformaldehyde overnight and embedded in paraffin. […] Digitally scanned images of H&E or Ki67-stained slides were created with the Aperio ScanScope AT2 at 20× magnification and analyzed with the Aperio's WebScope software. For tumor burden quantification, tumor regions were outlined and the percentage of tumor area relative to total lung area was calculated for each mouse. For Ki67 index, tumor cells were classified based on the intensity of the nuclear Ki67 staining from 0 to 3+ by using a built-in Nuclear algorithm in the Webscope, and the percentage of nuclei with intense nuclear staining (3+) in total nuclei was calculated. […]
# [3] = test system: IL-17 producing γδ T cells; test: Flow cytometry of IL-17 producing γδ T cells in tumor-bearing lung; assay type: in vivo, mouse; conditions: KP mice, antibiotics in drinking water
# Procedure: Mice were injected retro-orbitally with a PE-CF594 conjugated anti-CD45 antibody (30-F11, BD Bioscience) 2 minutes prior to euthanasia to label the immune cells in the circulation. Lungs were collected, cut into small pieces, and digested with 125 U/mL collagenase IV (Worthington Biochemical) and 40 U/mL DNase I (Roche) for 30 minutes at 37° C. Dissociated lung tissue was then filtered with a 100 μm cell strainer. Spleen and lymph node samples were ground and passed through a 100 μm cell strainer. After blocking FcgRIII/II with an anti-CD16/CD32 mAb (eBioscience), single cell suspensions were stained with the following antibodies: CD45.2 (104), CD45.1 (A20), Ly6G (1A8), CD11b (M1/70), TCRβ (H57-597), TCRγδ (GL3 or UC7-13D5), CD3 (17A2), CD4 (RM4-5), CD8 (53-6.7), Vγ1 (Vg1.1, 2.11), Vγ4 (Vγ2, UC3-10A6), IFN-γ (XMG1.2), IL-17A (TC11-18H10.1), TNF-α (MP6-XT22), IL-17F (ebio18F10), CD44 (IM7), CD27 (LG.3A10), CD69 (H1.2F3), PD-1 (29F. 1A12), PD-L1 (10F.9G2), T-bet (eBio4B10), RORγt (B2D), PLZF (Mags.21F7) and Ki67 (B56) purchased from eBioscience, BD or Biolegend. […] Flow cytometry was performed on the LSR II or LSRFortessa (BD), and data were analyzed by the FlowJo software (Treestar). […]
# Flow cytometry and FACS was performed as described above in Example 3. […] Flow cytometry was performed on the LSR II or LSRFortessa (BD), and data were analyzed by the FlowJo software (Treestar). […]
# IL-17A = IL-17A ELISA in BALF or serum of KP mice; assay type: in vivo, mouse; conditions: antibiotics in drinking water
# Procedure: IL-17 levels in serum or bronchoalveolar lavage fluid were measured using a mouse IL-17A ELISA kit (eBioscience) according to the manufacturer's instructions.
# IL-17 levels were measured using a mouse IL-17A ELISA kit (eBioscience) according to the manufacturer's instructions.
# IL-17A levels were measured using a mouse IL-17A ELISA kit (eBioscience) according to the manufacturer's instructions.
# [4] = test system: KP tumor-derived cell lines; test: In vitro cell proliferation of tumor cell lines derived from primary lung tumors of KP mice; assay type: cell-based, mouse; conditions: live cells 72 hours post treatment
# Procedure: Tumor cell lines were derived from primary lung tumors of KP mice, and maintained in DMEM medium (Gibco) supplemented with 10% FBS (Sigma). Cells were serum-starved for 24 hours (1% FBS) before treated with recombinant human amphiregulin (Sigma-Aldrich) or recombinant mouse IL-22 (R&D Systems) at the indicated dose, or left untreated as controls. The number of live cells was determined 72 hours post treatment by counting the Trypan Blue (Gibco) negative cells or through the CellTiter-Glo Luminescent Cell Viability Assay (Promega) according to the manufacturer's instructions.
molecule,measurement,setting,value
Cc1ncc([N+](=O)[O-])n1CCO [metronidazole],overall bacterial abundance in the gut,[1],without substantially reducing the overall bacterial abundance in the gut
same,tumor growth in the lung (tumor burden),[2],effectively suppressed tumor growth in the lung
same,abundance of IL-17 producing γδ T cells in the tumor-bearing lung,[3],dramatically decreased
same,IL-17A levels in the BALF or serum,IL-17A,lower IL-17A levels
B1,tumor cell proliferation in vitro,"[4]; recombinant mouse IL-22, serum-starved KP tumor cell lines",stimulated tumor cell proliferation in vitro
B2,proliferation of KP tumor-derived cell lines,"[4]; recombinant human amphiregulin, serum-starved cells",promoted proliferation of KP tumor-derived cell lines in a dose-dependent fashion
